According to publication PMC6216040, “Repurposing of an old drug: In vitro and in vivo efficacies of buparvaquone against Echinococcus multilocularis” (International Journal for Parasitology: Drugs and Drug …, 2018):
Where two headings read alike, the source gives them in different places.

How the values were obtained:
[1] = test system: E. multilocularis metacestodes; assay: PGI-assay: drug-induced damage on in vitro cultured metacestodes (Pathogen Box screening cascade and EC50); format: cell-based, Echinococcus multilocularis; details: for cytotoxicity at 10 µM / PGI release, % of Tx-100 control at 10 µM: Echinococcus multilocularis; for cytotoxicity at 10 µM / PGI release, % of the Tx-100 control, 5d / PGI release, % of the Tx-100 control, 12d: singlets, 10 µM; for PGI release, % of Tx-100 control at 10 µM: confirmatory screening at 10 µM in triplicates, values as % of Tx-100 control
[2] = test system: E. multilocularis metacestodes; details: ref Reuter et al., 2003, 2010; cited from earlier work

| Compound | PGI release, % of the Tx-100 control, 5d ([1]; 5 days of incubation) | PGI release, % of the Tx-100 control, 12d ([1]; 12 days of incubation) | also measured |
| --- | --- | --- | --- |
| C[C@@H]1[C@H](O)[C@@H](C)/C=C/C=C/C=C/C=C/C=C/C=C/C=C/[C@H](O[C@@H]2O[C@H](C)[C@@H](O)[C@H](N)[C@@H]2O)C[C@@H]2O[C@](O)(C[C@@H](O)C[C@@H](O)[C@H](O)CC[C@@H](O)C[C@@H](O)CC(=O)O[C@H]1C)C[C@H](O)[C@H]2C(=O)O [MMV689000, Amphotericin B, reference compound] |  |  | cytotoxicity at 10 µM ([1]; 120 h, 5 days of incubation, read-out: PGI release, % of the Tx-100 control, 5d): 34.2%; PGI release, % of Tx-100 control at 10 µM ([1]; 120 h, 5 days of incubation, read-out: PGI release, % of Tx-100 control, average, 5d): -1.34%; cytotoxicity at 10 µM ([1]; 288 h, 12 days of incubation, read-out: PGI release, % of the Tx-100 control, 12d): 51.2%; PGI release, % of Tx-100 control at 10 µM ([1]; 288 h, 12 days of incubation, read-out: PGI release, % of Tx-100 control, average, 12d): 2.75%; concentration shown to destroy metacestodes in vitro [2]: 2.7 µM |
| CNC(=O)CNc1nc(-c2ccccn2)nc2scc(-c3ccccc3)c12 [MMV1029203] | -5.65% | 6.41% |  |
| CCCn1c(NC(=O)c2ccc3ccccc3n2)nc2ccccc21 [MMV1030799] | 3.64% | 13.68% |  |
| CCNC(=O)C(C)Nc1nc(-c2cccnc2)nc2sc(C)c(C)c12 (stereo not drawn) [MMV1037162] | 0.19% | -2.69% |  |
| Cc1ccc(-c2nc(CN(Cc3ccccn3)C(C)C)cs2)o1 [MMV1088520] | -5.44% | -2.75% |  |
| COc1cccn2c(C(=O)N3CCCCC3)c(C(F)(F)F)nc12 [MMV1110498] | -3.14% | 0.63% |  |
| Cc1cc(OCC(=O)Nc2ccc(C(C)C)cc2)n(C)c(=O)c1C#N [MMV1198433] | 2.43% | -0.19% |  |
| CCOC(=O)c1noc(N)c1-c1ccccc1 [MMV1236379] | 3.51% | 4.87% |  |
| Levofloxacin (-)-ofloxacin [MMV687798, reference compound] | -0.0541% | -0.33% |  |
